Measurements reported in US8012971B2, “Therapeutic agent for chronic obstructive pulmonary disease” (Dainippon Sumitomo Pharma Co., Ltd., priority 2005, dated 2011).

Tested on: Guinea Pig Chronic Obstructive Pulmonary Disease (COPD) Model
Experiment: Histological investigations of lung in guinea pig COPD model
Type: in vivo
Settings: 8 animals
Experimental: An evaluation was carried out as follows according to a report of Kosuke MORIZUMI, Junichi FUCHIGAMI et al., 2002, The 75th Annual Meeting of the Japanese Pharmacological Society (2002) Abstract No. P-259, “Study of a chronic obstructive pulmonary disease-Effects of theophylline on respiratory function and lung function of guinea pigs in an exposure of cigarette smoke.”
Male Hartley strain guinea pigs (purchased from Japan SLC, Inc.) were taken in a cigarette exposure holder (RMH-TUBES, manufactured by Muenster Ltd.) to secure them to an exposure chamber (Flow-past type nose-only inhalation chamber, manufactured by Muenster Ltd.), and allowed to inhale cigarette smoke (Hi-Lite, manufactured by Japan Tobacco Inc.) for 60 minutes per day for 5 days in a week, totally 4 weeks using a smoking exposure equipment (Hamburg II, manufactured by Borgwaldt Technik), while the exposure was carried out for 4 days in the 4th week. • (2) Drug Administrations
Each 0.5% MC suspension of a test drug was orally administered daily in 5 ml/weight (kg) once a day for 25 days from the first day of the exposure. To a sham-exposure group and a control group was orally administered a 0.5% MC suspension in a similar manner. Any oral administrations were carried out 0.5 to 1 hours before exposures on a cigarette-smoke-exposure day or after measurements when measuring respiratory functions. A drug was not administered on the day for measurement of respiratory functions after finishing the 4th week of the exposure. • (3) Measurements of Airway Resistance
After collection of BALF, trachea and lung were isolated. The ligation site of the left lung was opened, injected neutral formalin buffer into trachea, bronchi and lung at the pressure of 20 cm H2O via cannula fixed on the side of the lung, and the lung tissue was extended to be fixed. According to a conventional method, tissue section samples were produced using posterior lobe of the left lung and hematoxylin-eosin (HE) stain was carried out. Any other lung tissues were stored in neutral formalin buffers. Drug efficacies of the produced tissue samples were evaluated by scoring tissue changes under the microscope. The criteria of scores were shown as follows: −: none, ±: minimal, +: mild, ++: moderate, +++: severe. Each quantification was calculated as 0, 1, 2, 3, 4.

CNC(=O)NCCn1c(-c2ccc(N3CCOCC3)cc2)csc1=Nc1cccc(F)c1 [SMP-028, N-{2-[2-[(3-fluorophenyl)imino]-4-(4-morpholinophenyl)-thiazol-3(2H)-yl]ethyl}-N′-methylurea]
Number of animals with grade + (mild): A. Hyperplasia, epithelial cell, bronchus (10 mg/kg/day for 25 days): 0 | Number of animals with grade + (mild): B. Cellular exudation, neutrophil/eosinophil, lumen, bronchiole (10 mg/kg/day for 25 days): 0 | Number of animals with grade + (mild): C. Thickening, alveolar wall (10 mg/kg/day for 25 days): 2 | Number of animals with grade + (mild): D. Accumulation, foamy/macrophage-like cell, alveolus (10 mg/kg/day for 25 days): 2 | Number of animals with grade + (mild): E. Cellular infiltration, neutrophil, alveolus (10 mg/kg/day for 25 days): 0 | Number of animals with grade ++ (moderate): A. Hyperplasia, epithelial cell, bronchus (10 mg/kg/day for 25 days): 0 | Number of animals with grade ++ (moderate): B. Cellular exudation, neutrophil/eosinophil, lumen, bronchiole (10 mg/kg/day for 25 days): 0 | Number of animals with grade ++ (moderate): C. Thickening, alveolar wall (10 mg/kg/day for 25 days): 0 | Number of animals with grade ++ (moderate): D. Accumulation, foamy/macrophage-like cell, alveolus (10 mg/kg/day for 25 days): 0 | Number of animals with grade ++ (moderate): E. Cellular infiltration, neutrophil, alveolus (10 mg/kg/day for 25 days): 0 | Number of animals with grade +++ (severe): A. Hyperplasia, epithelial cell, bronchus (10 mg/kg/day for 25 days): 0 | Number of animals with grade +++ (severe): B. Cellular exudation, neutrophil/eosinophil, lumen, bronchiole (10 mg/kg/day for 25 days): 0 | Number of animals with grade +++ (severe): C. Thickening, alveolar wall (10 mg/kg/day for 25 days): 0 | Number of animals with grade +++ (severe): D. Accumulation, foamy/macrophage-like cell, alveolus (10 mg/kg/day for 25 days): 0 | Number of animals with grade +++ (severe): E. Cellular infiltration, neutrophil, alveolus (10 mg/kg/day for 25 days): 0 | Number of animals with grade ± (minimal): A. Hyperplasia, epithelial cell, bronchus (10 mg/kg/day for 25 days): 1 | Number of animals with grade ± (minimal): B. Cellular exudation, neutrophil/eosinophil, lumen, bronchiole (10 mg/kg/day for 25 days): 1 | Number of animals with grade ± (minimal): C. Thickening, alveolar wall (10 mg/kg/day for 25 days): 2 | Number of animals with grade ± (minimal): D. Accumulation, foamy/macrophage-like cell, alveolus (10 mg/kg/day for 25 days): 3 | Number of animals with grade ± (minimal): E. Cellular infiltration, neutrophil, alveolus (10 mg/kg/day for 25 days): 0 | Number of animals with grade − (none): A. Hyperplasia, epithelial cell, bronchus (10 mg/kg/day for 25 days): 7 | Number of animals with grade − (none): B. Cellular exudation, neutrophil/eosinophil, lumen, bronchiole (10 mg/kg/day for 25 days): 7 | Number of animals with grade − (none): C. Thickening, alveolar wall (10 mg/kg/day for 25 days): 4 | Number of animals with grade − (none): D. Accumulation, foamy/macrophage-like cell, alveolus (10 mg/kg/day for 25 days): 3 | Number of animals with grade − (none): E. Cellular infiltration, neutrophil, alveolus (10 mg/kg/day for 25 days): 8 | Number of animals with grade + (mild): A. Hyperplasia, epithelial cell, bronchus (30 mg/kg/day for 25 days): 0 | Number of animals with grade + (mild): B. Cellular exudation, neutrophil/eosinophil, lumen, bronchiole (30 mg/kg/day for 25 days): 0 | Number of animals with grade + (mild): C. Thickening, alveolar wall (30 mg/kg/day for 25 days): 1 | Number of animals with grade + (mild): D. Accumulation, foamy/macrophage-like cell, alveolus (30 mg/kg/day for 25 days): 2 | Number of animals with grade + (mild): E. Cellular infiltration, neutrophil, alveolus (30 mg/kg/day for 25 days): 0 | Number of animals with grade ++ (moderate): A. Hyperplasia, epithelial cell, bronchus (30 mg/kg/day for 25 days): 0 | Number of animals with grade ++ (moderate): B. Cellular exudation, neutrophil/eosinophil, lumen, bronchiole (30 mg/kg/day for 25 days): 0 | Number of animals with grade ++ (moderate): C. Thickening, alveolar wall (30 mg/kg/day for 25 days): 0
